The source of these data is patent publication US8969360B2, “Compounds useful as inhibitors of ATR kinase” (Vertex Pharmaceuticals Incorporated, priority 2013, dated 2015).

The target of one experiment is T1, ATR kinase (Homo sapiens, UniProt Q13535).
T1 construct: Assays were carried out at 25° C. in the presence of 5 nM full-length ATR
As to the kind of experiment: ATR Inhibition Assay (radioactive-phosphate incorporation). The class given is biochemical. The settings on record: Ki(app); 5 nM full-length ATR, 10 μM ATP, 800 μM target peptide, 25° C. In a few lines:
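Full-length ATR (5 nM) in 50 mM Tris/HCl pH 7.5, 10 mM MgCl2, 1 mM DTT, with 800 μM peptide substrate and 10 μM [γ-33P]ATP at 25 °C. Compounds (from 15 μM final, 3-fold dilutions, 7% DMSO) were preincubated 10 min; the reaction was stopped at 24 h. 33P incorporation was captured on phosphocellulose; Ki(app) was from non-linear regression of initial rates.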

Experiment [1] has as its system HCT116 colorectal cancer cells. Description: Cisplatin Sensitization Assay (96 h cell viability MTS). In kind it is cell-based. The settings on record: concentration of compound required to reduce the IC50 of Cisplatin alone by at least 3-fold; HCT116, 96 h MTS. In a few lines:
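HCT116 cells received compound and cisplatin together as a full matrix of 2-fold dilutions, each from a 10 μM top final concentration. After 96 h at 37 °C and 5% CO2, viability was read by MTS (1 h, A490). The value is the compound concentration that lowers the cisplatin IC50 at least 3-fold.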

T1 sequence (Q13535 whole entry): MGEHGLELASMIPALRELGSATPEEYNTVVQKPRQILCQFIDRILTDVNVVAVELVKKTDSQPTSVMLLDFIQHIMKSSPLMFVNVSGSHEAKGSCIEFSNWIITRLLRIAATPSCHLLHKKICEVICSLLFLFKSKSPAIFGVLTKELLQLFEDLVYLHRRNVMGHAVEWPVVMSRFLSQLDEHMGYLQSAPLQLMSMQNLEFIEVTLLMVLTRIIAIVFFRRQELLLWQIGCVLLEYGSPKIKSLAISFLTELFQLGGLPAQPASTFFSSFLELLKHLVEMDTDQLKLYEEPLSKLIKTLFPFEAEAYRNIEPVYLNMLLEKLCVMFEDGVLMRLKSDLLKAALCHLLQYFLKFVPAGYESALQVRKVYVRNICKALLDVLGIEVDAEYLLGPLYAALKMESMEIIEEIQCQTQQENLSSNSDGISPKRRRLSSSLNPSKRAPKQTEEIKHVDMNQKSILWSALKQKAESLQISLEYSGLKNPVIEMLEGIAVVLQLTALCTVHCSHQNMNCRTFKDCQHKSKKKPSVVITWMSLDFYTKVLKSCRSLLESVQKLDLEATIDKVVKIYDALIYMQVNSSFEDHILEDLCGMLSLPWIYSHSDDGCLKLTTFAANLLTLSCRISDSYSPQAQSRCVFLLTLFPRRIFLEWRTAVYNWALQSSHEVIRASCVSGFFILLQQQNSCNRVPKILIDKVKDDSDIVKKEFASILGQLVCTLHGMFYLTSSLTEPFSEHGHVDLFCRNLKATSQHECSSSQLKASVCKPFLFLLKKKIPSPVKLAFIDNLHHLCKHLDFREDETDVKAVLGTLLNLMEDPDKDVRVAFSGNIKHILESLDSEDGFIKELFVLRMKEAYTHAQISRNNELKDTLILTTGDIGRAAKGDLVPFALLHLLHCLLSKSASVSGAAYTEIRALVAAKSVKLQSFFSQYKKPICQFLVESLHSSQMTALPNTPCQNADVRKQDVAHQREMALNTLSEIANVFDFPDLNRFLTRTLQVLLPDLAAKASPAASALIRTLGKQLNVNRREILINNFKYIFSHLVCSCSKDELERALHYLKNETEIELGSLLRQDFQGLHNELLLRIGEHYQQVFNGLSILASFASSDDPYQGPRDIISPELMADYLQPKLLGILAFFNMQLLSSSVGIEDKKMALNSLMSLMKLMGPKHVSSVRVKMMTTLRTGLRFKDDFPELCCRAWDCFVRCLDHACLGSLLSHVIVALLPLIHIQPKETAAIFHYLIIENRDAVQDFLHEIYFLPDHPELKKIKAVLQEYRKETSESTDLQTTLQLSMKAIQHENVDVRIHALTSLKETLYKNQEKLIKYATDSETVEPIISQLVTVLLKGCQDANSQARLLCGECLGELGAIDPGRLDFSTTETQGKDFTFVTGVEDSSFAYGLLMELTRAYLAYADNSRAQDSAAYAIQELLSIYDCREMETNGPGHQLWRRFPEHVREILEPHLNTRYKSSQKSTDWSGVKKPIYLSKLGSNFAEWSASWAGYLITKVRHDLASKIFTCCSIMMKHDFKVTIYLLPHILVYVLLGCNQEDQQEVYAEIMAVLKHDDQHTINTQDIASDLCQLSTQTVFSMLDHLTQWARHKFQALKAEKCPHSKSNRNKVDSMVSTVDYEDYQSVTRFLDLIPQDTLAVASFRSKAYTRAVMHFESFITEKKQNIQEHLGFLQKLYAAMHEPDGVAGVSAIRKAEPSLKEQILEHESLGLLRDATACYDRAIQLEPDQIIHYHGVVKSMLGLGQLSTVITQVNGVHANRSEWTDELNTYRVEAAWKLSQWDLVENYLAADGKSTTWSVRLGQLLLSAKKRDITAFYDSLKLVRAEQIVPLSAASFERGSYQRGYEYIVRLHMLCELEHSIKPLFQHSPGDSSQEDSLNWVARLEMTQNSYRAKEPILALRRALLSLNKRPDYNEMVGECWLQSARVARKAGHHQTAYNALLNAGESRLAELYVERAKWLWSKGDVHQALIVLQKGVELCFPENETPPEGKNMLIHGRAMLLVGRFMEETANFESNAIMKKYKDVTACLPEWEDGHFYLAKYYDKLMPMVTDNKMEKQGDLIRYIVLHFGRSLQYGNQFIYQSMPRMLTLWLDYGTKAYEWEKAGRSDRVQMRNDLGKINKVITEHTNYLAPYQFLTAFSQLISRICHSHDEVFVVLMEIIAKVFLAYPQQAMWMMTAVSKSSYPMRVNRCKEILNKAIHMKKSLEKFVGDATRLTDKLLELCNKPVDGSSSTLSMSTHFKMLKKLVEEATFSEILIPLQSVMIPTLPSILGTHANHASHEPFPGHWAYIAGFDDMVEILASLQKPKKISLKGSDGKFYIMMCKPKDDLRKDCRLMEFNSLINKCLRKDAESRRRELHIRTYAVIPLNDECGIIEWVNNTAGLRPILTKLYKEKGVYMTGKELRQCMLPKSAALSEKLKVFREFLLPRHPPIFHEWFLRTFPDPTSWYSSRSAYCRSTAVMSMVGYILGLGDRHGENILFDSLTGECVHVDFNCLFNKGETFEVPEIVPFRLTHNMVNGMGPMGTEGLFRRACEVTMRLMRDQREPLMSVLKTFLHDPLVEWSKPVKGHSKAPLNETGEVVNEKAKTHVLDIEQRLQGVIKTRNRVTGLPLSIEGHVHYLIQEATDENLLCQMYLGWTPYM

Take `CN(C)CCOc1cc(Cl)ncc1NC(=O)c1c(N)nn2ccc(C(F)(F)F)nc12` [I-O-50, 2-amino-N-(6-chloro-4-(2-(dimethylamino)ethoxy)pyridin-3-yl)-5-(trifluoromethyl)pyrazolo[1,5-a]pyrimidine-3-carboxamide]: the Ki at ATR kinase is 10 to 1000 nM. Moreover, the “Synergy with Cisplatin” value in experiment [1] is “++ (Compounds with a Cisplatin sensitization value>0.02 μM but <0.2 μM are marked with “++.”)”.

For `CN(C)CCOc1cc(C(F)(F)F)ncc1NC(=O)c1c(N)nn2ccc(C(F)(F)F)nc12` [I-O-51, 2-amino-N-(4-(2-(dimethylamino)ethoxy)-6-(trifluoromethyl)pyridin-3-yl)-5-(trifluoromethyl)pyrazolo[1,5-a]pyrimidine-3-carboxamide], on ATR kinase, the Ki fell in the range of 10 to 1000 nM. The “Synergy with Cisplatin” value in experiment [1] was “+ (Compounds with a Cisplatin sensitization value >0.2 μM but <5 μM are marked with “+.”)”.

Consider `COc1ccncc1NC(=O)c1c(N)nn2ccc(C(C)(C)C#N)nc12` [I-O-52, 2-amino-5-(2-cyanopropan-2-yl)-N-(4-methoxypyridin-3-yl)pyrazolo[1,5-a]pyrimidine-3-carboxamide], for which, on ATR kinase, the Ki lay in the range of 10 to 1000 nM. For the same molecule, in experiment [1], the “Synergy with Cisplatin” value was “+++ (Compounds with a Cisplatin sensitization value of <0.02 μM are marked with “+++.”)”.

Regarding `COc1ccncc1NC(=O)c1c(N)nn2ccc(CO)nc12` [I-O-54, 2-amino-5-(hydroxymethyl)-N-(4-methoxypyridin-3-yl)pyrazolo[1,5-a]pyrimidine-3-carboxamide], the Ki at ATR kinase lay in the range of 10 to 1000 nM. Also, the “Synergy with Cisplatin” value in experiment [1] is “++ (Compounds with a Cisplatin sensitization value>0.02 μM but <0.2 μM are marked with “++.”)”.

For the molecule `C=CCOCc1ccn2nc(N)c(C(=O)Nc3cnccc3OC)c2n1` [I-O-55, 5-((allyloxy)methyl)-2-amino-N-(4-methoxypyridin-3-yl)pyrazolo[1,5-a]pyrimidine-3-carboxamide], on ATR kinase, the Ki fell in the range of 10 to 1000 nM. Also, the “Synergy with Cisplatin” value in experiment [1] is listed as “+++ (Compounds with a Cisplatin sensitization value of <0.02 μM are marked with “+++.”)”.

On to `COc1ccncc1NC(=O)c1c(N)nn2ccc(OC3COC3)nc12` [I-O-56, 2-amino-N-(4-methoxypyridin-3-yl)-5-(oxetan-3-yloxy)pyrazolo[1,5-a]pyrimidine-3-carboxamide], for which the Ki on ATR kinase is 10 to 1000 nM. In addition, the “Synergy with Cisplatin” value in experiment [1] was “+++ (Compounds with a Cisplatin sensitization value of <0.02 μM are marked with “+++.”)”.

Consider `COc1ccncc1NC(=O)c1c(N)nn2ccc(OC3CCN(C)C3)nc12` (stereo not drawn) [I-O-57, 2-amino-N-(4-methoxypyridin-3-yl)-5-((1-methylpyrrolidin-3-yl)oxy)pyrazolo[1,5-a]pyrimidine-3-carboxamide], for which, at ATR kinase, the Ki is 10 to 1000 nM. Moreover, the “Synergy with Cisplatin” value in experiment [1] is “++ (Compounds with a Cisplatin sensitization value>0.02 μM but <0.2 μM are marked with “++.”)”.

As for `COc1ccncc1NC(=O)c1c(N)nn2ccc(OC3CCCN(C)C3)nc12` (stereo not drawn) [I-O-58, 2-amino-N-(4-methoxypyridin-3-yl)-5-((1-methylpiperidin-3-yl)oxy)pyrazolo[1,5-a]pyrimidine-3-carboxamide], the Ki at ATR kinase fell in the range of 10 to 1000 nM. Further, the “Synergy with Cisplatin” value in experiment [1] is “++ (Compounds with a Cisplatin sensitization value>0.02 μM but <0.2 μM are marked with “++.”)”.

In the case of `COc1ccncc1NC(=O)c1c(N)nn2ccc(OCCN3CCC3)nc12` [I-O-59, 2-amino-5-(2-(azetidin-1-yl)ethoxy)-N-(4-methoxypyridin-3-yl)pyrazolo[1,5-a]pyrimidine-3-carboxamide], the Ki at ATR kinase was in the range of 10 to 1000 nM. In addition, in experiment [1], the “Synergy with Cisplatin” value is “++ (Compounds with a Cisplatin sensitization value>0.02 μM but <0.2 μM are marked with “++.”)”.

Take `COc1ccncc1NC(=O)c1c(N)nn2ccc(OCCN3CCCC3)nc12` [I-O-60, 2-amino-N-(4-methoxypyridin-3-yl)-5-(2-(pyrrolidin-1-yl)ethoxy)pyrazolo[1,5-a]pyrimidine-3-carboxamide]: the Ki at ATR kinase was in the range of 10 to 1000 nM. Besides, the “Synergy with Cisplatin” value in experiment [1] is reported as “++ (Compounds with a Cisplatin sensitization value>0.02 μM but <0.2 μM are marked with “++.”)”.

Consider `COc1ccncc1NC(=O)c1c(N)nn2ccc(OC3CCN(C)CC3)nc12` [I-O-61, 2-amino-N-(4-methoxypyridin-3-yl)-5-((1-methylpiperidin-4-yl)oxy)pyrazolo[1,5-a]pyrimidine-3-carboxamide], for which the Ki on ATR kinase is 10 to 1000 nM. In experiment [1], the “Synergy with Cisplatin” value was “++ (Compounds with a Cisplatin sensitization value>0.02 μM but <0.2 μM are marked with “++.”)”.

As for `COc1ccncc1NC(=O)c1c(N)nn2ccc(OCCN(C)C)nc12` [I-O-62, 2-amino-5-(2-(dimethylamino)ethoxy)-N-(4-methoxypyridin-3-yl)pyrazolo[1,5-a]pyrimidine-3-carboxamide], the Ki at ATR kinase lay in the range of 10 to 1000 nM. The “Synergy with Cisplatin” value in experiment [1] is on record as “++ (Compounds with a Cisplatin sensitization value>0.02 μM but <0.2 μM are marked with “++.”)”.

In the case of `COc1ccncc1NC(=O)c1c(N)nn2ccc(OCCCN3CCC3)nc12` [I-O-63, 2-amino-5-(3-(azetidin-1-yl)propoxy)-N-(4-methoxypyridin-3-yl)pyrazolo[1,5-a]pyrimidine-3-carboxamide], the Ki on ATR kinase is 10 to 1000 nM. In addition, in experiment [1], the “Synergy with Cisplatin” value is reported as “++ (Compounds with a Cisplatin sensitization value>0.02 μM but <0.2 μM are marked with “++.”)”.

For `CC(C)Oc1ccncc1NC(=O)c1c(N)nn2ccc(OCCN(C)C)nc12` [I-O-64, 2-amino-5-(2-(dimethylamino)ethoxy)-N-(4-isopropoxypyridin-3-yl)pyrazolo[1,5-a]pyrimidine-3-carboxamide], the Ki at ATR kinase fell in the range of 1000 to 5000 nM. In addition, the “Synergy with Cisplatin” value in experiment [1] was “+ (Compounds with a Cisplatin sensitization value >0.2 μM but <5 μM are marked with “+.”)”.

On to `COc1cc(Cl)ncc1NC(=O)c1c(N)nn2ccc(OCCN(C)C)nc12` [I-O-65, 2-amino-N-(6-chloro-4-methoxypyridin-3-yl)-5-(2-(dimethylamino)ethoxy)pyrazolo[1,5-a]pyrimidine-3-carboxamide], for which the Ki on ATR kinase is 10 to 1000 nM. The “Synergy with Cisplatin” value in experiment [1] is recorded as “+ (Compounds with a Cisplatin sensitization value >0.2 μM but <5 μM are marked with “+.”)”.

Regarding `CNCc1ccn2nc(N)c(C(=O)Nc3cnccc3OC)c2n1` [I-O-66, 2-amino-N-(4-methoxypyridin-3-yl)-5-((methylamino)methyl)pyrazolo[1,5-a]pyrimidine-3-carboxamide], the Ki on ATR kinase was 10 to 1000 nM. In addition, the “Synergy with Cisplatin” value in experiment [1] is “++ (Compounds with a Cisplatin sensitization value>0.02 μM but <0.2 μM are marked with “++.”)”.

Turning to `CCCNc1ccn2nc(N)c(C(=O)Nc3cnccc3OC)c2n1` [I-O-67, 2-amino-N-(4-methoxypyridin-3-yl)-5-(propylamino)pyrazolo[1,5-a]pyrimidine-3-carboxamide], the Ki on ATR kinase lay in the range of 10 to 1000 nM. In addition, in experiment [1], the “Synergy with Cisplatin” value is “++ (Compounds with a Cisplatin sensitization value>0.02 μM but <0.2 μM are marked with “++.”)”.

For the molecule `COc1ccncc1NC(=O)c1c(N)nn2ccc(NCC3COC3)nc12` [I-O-68, 2-amino-N-(4-methoxypyridin-3-yl)-5-((oxetan-3-ylmethyl)amino)pyrazolo[1,5-a]pyrimidine-3-carboxamide], the Ki on ATR kinase was under 10 nM. The “Synergy with Cisplatin” value in experiment [1] is “++ (Compounds with a Cisplatin sensitization value>0.02 μM but <0.2 μM are marked with “++.”)”.

Take `COc1ccncc1NC(=O)c1c(N)nn2ccc(NCCN(C)C)nc12` [I-O-70, 2-amino-5-((2-(dimethylamino)ethyl)amino)-N-(4-methoxypyridin-3-yl)pyrazolo[1,5-a]pyrimidine-3-carboxamide]: on ATR kinase, the Ki is 10 to 1000 nM. In addition, in experiment [1], the “Synergy with Cisplatin” value is listed as “+ (Compounds with a Cisplatin sensitization value >0.2 μM but <5 μM are marked with “+.”)”.

In the case of `COc1ccncc1NC(=O)c1c(N)nn2ccc(NCC3CCCN3C)nc12` (stereo not drawn) [I-O-71], the Ki at ATR kinase is 10 to 1000 nM. For the same molecule, the “Synergy with Cisplatin” value in experiment [1] is given as “+ (Compounds with a Cisplatin sensitization value >0.2 μM but <5 μM are marked with “+.”)”.

For the molecule `COc1ccncc1NC(=O)c1c(N)nn2ccc(NCCN3CCCC3)nc12` [I-O-72, 2-amino-N-(4-methoxypyridin-3-yl)-5-((2-(pyrrolidin-1-yl)ethyl)amino)pyrazolo[1,5-a]pyrimidine-3-carboxamide], on ATR kinase, the Ki was in the range of 10 to 1000 nM. In addition, the “Synergy with Cisplatin” value in experiment [1] was “+ (Compounds with a Cisplatin sensitization value >0.2 μM but <5 μM are marked with “+.”)”.

On to `COc1ccncc1NC(=O)c1c(N)nn2ccc(N(C)CC3CCCN3C)nc12` (stereo not drawn) [I-O-73, 2-amino-N-(4-methoxypyridin-3-yl)-5-(methyl((1-methylpyrrolidin-2-yl)methyl)amino)pyrazolo[1,5-a]pyrimidine-3-carboxamide], for which the Ki on ATR kinase lay within 10 to 1000 nM. In addition, the “Synergy with Cisplatin” value in experiment [1] was “+ (Compounds with a Cisplatin sensitization value >0.2 μM but <5 μM are marked with “+.”)”.

As for `COc1ccncc1NC(=O)c1c(N)nn2ccc(N3CCNC(C(F)(F)F)C3)nc12` (stereo not drawn) [I-O-74, 2-amino-N-(4-methoxypyridin-3-yl)-5-(3-(trifluoromethyl)piperazin-1-yl)pyrazolo[1,5-a]pyrimidine-3-carboxamide], the Ki at ATR kinase is under 10 nM. The “Synergy with Cisplatin” value in experiment [1] is “+++ (Compounds with a Cisplatin sensitization value of <0.02 μM are marked with “+++.”)”.

Turning to `COc1ccncc1NC(=O)c1c(N)nn2ccc(N3CCN4CCC[C@@H]4C3)nc12` [I-O-75, (R)-2-amino-5-(hexahydropyrrolo[1,2-a]pyrazin-2(1H)-yl)-N-(4-methoxypyridin-3-yl)pyrazolo[1,5-a]pyrimidine-3-carboxamide], on ATR kinase, the Ki was in the range of 10 to 1000 nM. Further, the “Synergy with Cisplatin” value in experiment [1] is “++ (Compounds with a Cisplatin sensitization value>0.02 μM but <0.2 μM are marked with “++.”)”.
